Assay results taken from PubChem BioAssay (NCI).
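Test compounds were applied to cells in 96-well plates for 48 hours at 5 doses. Abbreviation: GI50, concentration required for 50% inhibition of growth. TGI marks complete inhibition of growth.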

Experiments:
Experiment in all cases: NCI-60 cell line screen, 48 h
[1] = system: HT29 colon
[2] = system: EKVX NSCLC
[3] = system: SK-MEL-2 melanoma
[4] = system: A549 NSCLC
[5] = system: MALME-3M melanoma
[6] = system: KM12 colon
[7] = system: TK-10 renal
[8] = system: T-47D breast
[9] = system: SR leukemia
[10] = system: MDA-MB-435

Compound | TGI [1] | TGI [2] | TGI [3] | TGI [4] | TGI [5] | TGI [6] | TGI [7] | GI50 [1] | GI50 [3] | GI50 [4] | GI50 [5] | GI50 [8] | TGI [8] | GI50 [9] | TGI [9] | GI50 [6] | GI50 [7] | GI50 [10] | TGI [10] | GI50 [2]
Cc1cccc(C2=C/C(=C(\SS/C(C(=O)c3ccc(OCC(=O)O)c(Cl)c3Cl)=C3\C=C(c4cccc(C)c4)SS3)C(=O)c3ccc(OCC(=O)O)c(Cl)c3Cl)SS2)c1 | > 75 µM | > 100 µM | 39.8 µM | > 100 µM | 74.9 µM | 52.9 µM | > 88.2 µM | – | – | – | – | – | – | – | – | – | – | – | – | –
COc1cc(/C=C\c2cc(OC)c(OC)c(OC)c2)cc(N/C=C\C(=O)c2c[nH]c3ccccc23)c1OC | 5.14 µM | – | 4.68 µM | 34.8 µM | 3.18 µM | 14.1 µM | 3.54 µM | 2.28 µM | 2.21 µM | 14.5 µM | 1.27 µM | 1.55 µM | 4.51 µM | 0.469 µM | 3.38 µM | 3.69 µM | 1.86 µM | 2.43 µM | 8.04 µM | –
CCCC/C(=C\C1=C(C)C(=O)C(OC)=C(OC)C1=O)C(=O)O | > 100 µM | > 100 µM | > 100 µM | > 100 µM | > 100 µM | > 100 µM | > 100 µM | > 100 µM | > 100 µM | > 100 µM | > 100 µM | 33.2 µM | 94.3 µM | – | – | > 100 µM | > 100 µM | > 100 µM | > 100 µM | > 100 µM
Nc1nc(-c2ccc(Cl)c([N+](=O)[O-])c2)cs1 | > 100 µM | > 100 µM | > 100 µM | > 100 µM | > 100 µM | > 100 µM | > 100 µM | – | – | – | – | – | – | – | – | – | – | – | – | –
COc1ccc(C(CC(=O)c2ccc3c(c2)OCO3)c2c(O)c3ccccc3oc2=O)cc1OC (configuration not stated) | > 100 µM | > 100 µM | > 100 µM | > 100 µM | > 100 µM | > 100 µM | > 100 µM | – | – | – | – | – | > 100 µM | – | – | – | – | – | > 100 µM | –
CN(C(=O)c1ccc([N+](=O)[O-])cc1)c1ccccc1 | > 100 µM | > 100 µM | – | > 100 µM | > 100 µM | > 100 µM | – | – | – | – | – | – | – | – | – | – | – | – | – | –
CCC/C=C/C=C/C1CC(O)C(O)C(=O)C1CO (configuration not stated) | > 100 µM | > 100 µM | > 100 µM | > 100 µM | – | > 100 µM | > 100 µM | – | – | – | – | – | > 100 µM | – | – | – | – | – | > 100 µM | –
CC(C)(C)c1ccc2c(c1)S(=O)(=O)Nc1ccc(Cl)cc1NS(=O)(=O)c1cc(C(C)(C)C)ccc1OCCOCCOCCO2 | > 100 µM | > 100 µM | > 100 µM | > 100 µM | 80 µM | > 100 µM | > 100 µM | – | – | – | – | – | – | – | – | – | – | – | – | –
COc1cc2c(cc1O)CCN[C@]21CS[C@@H]2c3c(OC(C)=O)c(C)c4c(c3[C@H](COC1=O)N1[C@@H]2[C@H]2c3c(cc(C)c(OC)c3O)C[C@@H]([C@@H]1O)N2C)OCO4 | 2.52 µM | 0.0459 µM | 0.00511 µM | 2.83 µM | – | – | 3.54 µM | – | 0.0031 µM | 0.00319 µM | – | – | 3.02 µM | – | 10.5 µM | – | 0.00331 µM | – | – | 0.00467 µM
CCOCN1COCN(C)C1=O | > 100 µM | > 100 µM | > 100 µM | > 100 µM | > 100 µM | > 100 µM | > 100 µM | – | – | – | – | – | – | – | – | – | – | – | – | –
COC(=O)/C(=N/O)C(C(=O)C=C(C)C)C(=O)C(=O)Nc1nc2ccc([N+](=O)[O-])cc2s1 (configuration not stated) | > 100 µM | 57.8 µM | 71.9 µM | > 100 µM | > 100 µM | > 100 µM | 95.8 µM | – | – | – | – | – | – | – | > 100 µM | – | – | – | – | –
O=C(O)c1cccc(COc2ccc([N+](=O)[O-])cc2Cl)c1 | – | 4.87 µM | > 100 µM | > 100 µM | – | > 100 µM | > 100 µM | – | > 100 µM | > 100 µM | – | > 100 µM | > 100 µM | – | – | > 100 µM | 27.2 µM | > 100 µM | > 100 µM | 0.549 µM
O=C(CC(=O)C1CCOC1=O)C(=O)Nc1cccc(Cl)c1 (configuration not stated) | > 100 µM | > 100 µM | > 100 µM | > 100 µM | > 100 µM | > 100 µM | > 100 µM | – | – | – | – | – | – | – | – | – | – | – | – | –
ClCCN(CCCl)c1ccc(CNc2ccccc2)cc1 | > 100 µM | – | 51 µM | > 100 µM | 76.8 µM | > 100 µM | – | 20.4 µM | 20.9 µM | 4.36 µM | 21.8 µM | 5.91 µM | > 100 µM | 0.674 µM | > 100 µM | 24.7 µM | – | 12 µM | > 100 µM | –
Nc1c(-c2ccccc2-c2c(N)[n+]([O-])c3ccccc3[n+]2[O-])[n+]([O-])c2ccccc2[n+]1[O-] | > 100 µM | 57.1 µM | > 100 µM | > 100 µM | > 100 µM | 50.2 µM | > 100 µM | – | – | – | – | – | – | – | 37.3 µM | – | – | – | – | –
N#CC(=Nc1ccccc1N(C(=O)c1ccccc1)C(=O)c1ccccc1)c1ccccc1 | > 100 µM | > 100 µM | > 100 µM | > 48.8 µM | > 100 µM | > 70.9 µM | > 100 µM | – | – | – | – | – | – | – | 24.2 µM | – | – | – | – | –
COc1ccc(C(=O)c2cc(OC)c(OC)c(OC)c2)cc1OC | 9.75 µM | > 100 µM | > 100 µM | > 100 µM | > 100 µM | 28.9 µM | > 100 µM | – | – | – | – | – | – | – | > 100 µM | – | – | – | 1.89 µM | –
CCN1c2ccccc2-c2c3c1cc(C)cc3c1ccccc1[n+]2CC | 3.92 µM | – | 4.29 µM | 13.8 µM | 7.73 µM | 1.41 µM | 9.66 µM | – | – | – | – | – | – | – | 5.21 µM | – | – | – | – | –
CC1=C(C#N)C(=O)CC(c2ccc(Cl)cc2)N(C)N1 (configuration not stated) | > 100 µM | – | > 100 µM | > 100 µM | > 100 µM | > 100 µM | > 100 µM | – | – | – | – | – | – | – | > 100 µM | – | – | – | – | –
COc1cccc(/C=N/[N-]C(=O)c2ccncc2)c1[O-].COc1cccc(/C=N/[N-]C(=O)c2ccncc2)c1[O-].[O]=[U](=[O])([OH2+])[OH2+] | > 100 µM | > 100 µM | > 74 µM | > 100 µM | > 66.3 µM | > 100 µM | > 31.6 µM | 30.7 µM | 19.8 µM | 27.9 µM | 12.8 µM | – | – | 3.37 µM | > 100 µM | 36.3 µM | 13.1 µM | – | – | 2.86 µM
